From ChEMBL document CHEMBL4732079, “Design, synthesis and antitumor evaluation of new 1,8-naphthalimide derivatives targeting nuclear DNA” (Eur J Med Chem, 2021)

Experiments:
MGC-803 [1] = experiment: Antiproliferative activity against human MGC-803 cells by MTT assay; assay type: functional, cell-based
A549 = experiment: cells; conditions: Homo sapiens
Description: Antiproliferative activity against human A549 cells by MTT assay

T-24 = experiment: Antiproliferative activity against human T-24 cells by MTT assay; assay type: functional, cell-based
SK-OV-3 = experiment: Antiproliferative activity against human SK-OV-3 cells by MTT assay; assay type: functional, cell-based
SMMC-7721 = experiment: Antiproliferative activity against human SMMC-7721 cells by MTT assay; assay type: functional, cell-based
MGC-803 [2] = experiment: Antitumor activity against human MGC-803 cells xenografted in BALB/c nude mice assessed as tumor inhibitory rate at 5 mg/kg, ip measured after 21 days relative to control; assay type: functional; conditions: Mus musculus, MGC-803, ip, 504 h, time 21 day
MGC-803 [3] = experiment: Antitumor activity against human MGC-803 cells xenografted in BALB/c nude mice assessed as tumor increment rate at 5 mg/kg, ip measured after 21 days relative to control; assay type: functional; conditions: time 21 day

Compound | IC50 (MGC-803 [1]) | IC50 (A549) | IC50 (T-24) | IC50 (SK-OV-3) | IC50 (SMMC-7721) | inhibition in vivo at 5 mg/kg (MGC-803 [2]) | T/C (MGC-803 [3])
Cc1ccc(S(=O)(=O)N2CCN(c3c([N+](=O)[O-])cc4c5c(cccc35)C(=O)N(CCc3ccc(O)c(O)c3)C4=O)CC2)cc1 | 21.8 µM | 24.7 µM | 11.4 µM | 20.4 µM | 12.3 µM |  | 
COc1ccc(CN2C(=O)c3cccc4c(N5CCN(S(=O)(=O)c6ccc(C)cc6)CC5)c([N+](=O)[O-])cc(c34)C2=O)cc1 | 16.3 µM | 26.9 µM | 14.1 µM | 24.1 µM | 30.2 µM |  | 
Cc1ccc(S(=O)(=O)N2CCN(c3c([N+](=O)[O-])cc4c5c(cccc35)C(=O)N(CCO)C4=O)CC2)cc1 | 16 µM | 20.8 µM | 6.8 µM | 12.2 µM | 15.8 µM |  | 
CN(C)CCN1C(=O)c2cccc3cc([N+](=O)[O-])cc(c23)C1=O [MITONAFIDE] | 6.8 µM | 0.012 µM | 1.11 µM | 1.38 µM | 3.22 µM |  | 
O=C(c1ccccc1)N1CCN(c2c([N+](=O)[O-])cc3c4c(cccc24)C(=O)N(CCc2ccc(O)c(O)c2)C3=O)CC1 | 9.31 µM | 22.5 µM | 14.6 µM | 19.9 µM | 19.7 µM |  | 
CC(C)(C)OC(=O)N1CCN(c2c([N+](=O)[O-])cc3c4c(cccc24)C(=O)N(CCc2ccc4c(c2)OCO4)C3=O)CC1 | 25.2 µM | 16.5 µM | 9.71 µM | 7.48 µM | 14.4 µM |  | 
O=C(c1ccccc1)N1CCN(c2c([N+](=O)[O-])cc3c4c(cccc24)C(=O)N(Cc2ccc(Cl)cc2)C3=O)CC1 | 19.9 µM | 47.7 µM | 20.9 µM | 15.9 µM | 13 µM |  | 
Cc1ccc(S(=O)(=O)N2CCN(c3c([N+](=O)[O-])cc4c5c(cccc35)C(=O)N(Nc3ccccc3)C4=O)CC2)cc1 | 16.2 µM | 38.4 µM | 10.7 µM | 23.2 µM | 14.4 µM |  | 
CN(C)CCN1C(=O)c2cccc3c(N4CCN(C(=O)OC(C)(C)C)CC4)c([N+](=O)[O-])cc(c23)C1=O | 1.33 µM | 1.08 µM | 0.83 µM | 0.65 µM | 1.05 µM |  | 
O=C1c2cccc3c(N4CCN(C(=S)SCc5ccccc5)CC4)c([N+](=O)[O-])cc(c23)C(=O)N1CCc1ccc(O)c(O)c1 | 25.4 µM | 17.4 µM | 10.7 µM | 26.3 µM | 22.5 µM |  | 
CCCCN1C(=O)c2cccc3c(N4CCN(S(=O)(=O)c5ccc(C)cc5)CC4)c([N+](=O)[O-])cc(c23)C1=O | 21.3 µM | 36.8 µM | 10.9 µM | 33.6 µM | 12.5 µM |  | 
Cc1ccc(S(=O)(=O)N2CCN(c3c([N+](=O)[O-])cc4c5c(cccc35)C(=O)N(Cc3ccc(Cl)cc3)C4=O)CC2)cc1 | 28.9 µM | > 50 µM | 6.37 µM | 30.4 µM | 17.6 µM |  | 
O=C1c2cccc3c(N4CCN(C(=S)SCc5ccccc5)CC4)c([N+](=O)[O-])cc(c23)C(=O)N1Nc1ccccc1 | 18.4 µM | > 50 µM | 13.3 µM | > 50 µM | 14.8 µM |  | 
CNCCCN1C(=O)c2cccc3c(N4CCN(C(=O)c5ccccc5)CC4)c([N+](=O)[O-])cc(c23)C1=O | 8.22 µM | 6.66 µM | 4.65 µM | 4.11 µM | 4.73 µM |  | 
CN(C)CCN1C(=O)c2cccc3cc(N)cc(c23)C1=O [AMONAFIDE] | 9.06 µM | 7.94 µM | 5.01 µM | 6.31 µM | 6.93 µM | 65.5% | 34.4%
O=C1c2cccc3c(N4CCN(C(=S)SCc5ccccc5)CC4)c([N+](=O)[O-])cc(c23)C(=O)N1CCO | 15.4 µM | > 50 µM | 13.2 µM | 31.4 µM | 14.3 µM |  | 

Compound | IC50 (MGC-803 [1]) | IC50 (A549) | IC50 (T-24) | IC50 (SK-OV-3) | IC50 (SMMC-7721) | inhibition in vivo at 5 mg/kg (MGC-803 [2]) | T/C (MGC-803 [3])
CC(C)(C)OC(=O)N1CCN(c2c([N+](=O)[O-])cc3c4c(cccc24)C(=O)N(CCc2ccc(O)c(O)c2)C3=O)CC1 | 8.77 µM | 42.1 µM | 11 µM | 8.87 µM | 27.5 µM |  | 
CC(C)(C)OC(=O)N1CCN(c2c([N+](=O)[O-])cc3c4c(cccc24)C(=O)N(Cc2ccc(Cl)cc2)C3=O)CC1 | 16.1 µM | 40.4 µM | 9.52 µM | 12.7 µM | 7.76 µM |  | 
COc1ccc(CN2C(=O)c3cccc4c(N5CCN(C(=S)SCc6ccccc6)CC5)c([N+](=O)[O-])cc(c34)C2=O)cc1 | 31.1 µM | 38.6 µM | 10.8 µM | 27 µM | 17.9 µM |  | 
Cc1ccc(S(=O)(=O)N2CCN(c3c([N+](=O)[O-])cc4c5c(cccc35)C(=O)N(Cc3ccccc3)C4=O)CC2)cc1 | 10.8 µM | 42.9 µM | 12.7 µM | 38.2 µM | 14.8 µM |  | 
CNCCCN1C(=O)c2cccc3c(N4CCN(C(=O)OC(C)(C)C)CC4)c([N+](=O)[O-])cc(c23)C1=O | 6.44 µM | 7.52 µM | 3.05 µM | 8.65 µM | 5.91 µM |  | 
Cc1ccc(S(=O)(=O)N2CCN(c3c([N+](=O)[O-])cc4c5c(cccc35)C(=O)N(Cc3ccco3)C4=O)CC2)cc1 | 29.9 µM | 47.2 µM | 8.43 µM | 29.5 µM | 14.7 µM |  | 
Cc1ccc(S(=O)(=O)N2CCN(c3c([N+](=O)[O-])cc4c5c(cccc35)C(=O)N(CCc3ccc5c(c3)OCO5)C4=O)CC2)cc1 | 12.8 µM | 41.8 µM | 9.17 µM | 28.9 µM | 16.6 µM |  | 
O=C1c2cccc3c(N4CCN(C(=S)SCc5ccccc5)CC4)c([N+](=O)[O-])cc(c23)C(=O)N1Cc1ccccc1 | 21.7 µM | > 50 µM | 13.1 µM | 34.2 µM | 13.5 µM |  | 
O=C1c2cccc3c(N4CCN(C(=S)SCc5ccccc5)CC4)c([N+](=O)[O-])cc(c23)C(=O)N1CCc1ccc2c(c1)OCO2 | 20.7 µM | 33.4 µM | 9.16 µM | 44.8 µM | 12.9 µM |  | 
O=c1[nH]cc(F)c(=O)[nH]1 [FLUOROURACIL] | 34.9 µM |  | 40.1 µM |  | 15.3 µM |  | 
O=C1c2cccc3c(N4CCN(C(=S)SCc5ccccc5)CC4)c([N+](=O)[O-])cc(c23)C(=O)N1Cc1ccco1 | 21.2 µM | 44.5 µM | 18.4 µM | 40.4 µM | 11.6 µM |  | 
CC(C)(C)OC(=O)N1CCN(c2c([N+](=O)[O-])cc3c4c(cccc24)C(=O)N(CCO)C3=O)CC1 | 27.4 µM | 45.6 µM | 12.8 µM | 13.4 µM | 13.9 µM |  | 
O=C(c1ccccc1)N1CCN(c2c([N+](=O)[O-])cc3c4c(cccc24)C(=O)N(CCO)C3=O)CC1 | 12.9 µM | 31.3 µM | 9.93 µM | 16.8 µM | 12 µM |  | 
CN(C)CCN1C(=O)c2cccc3c(N4CCN(C(=S)SCc5ccccc5)CC4)c([N+](=O)[O-])cc(c23)C1=O | 6.08 µM | 1.98 µM | 2.06 µM | 2.4 µM | 3.17 µM |  | 
O=C1c2cccc3c(N4CCN(C(=S)SCc5ccccc5)CC4)c([N+](=O)[O-])cc(c23)C(=O)N1Cc1ccc(Cl)cc1 | 20.7 µM | 40 µM | 10.3 µM | 29.7 µM | 8.83 µM |  | 
